Data: patent US20100075917A1, “THIONUCLEOSIDES AND PHARMACEUTICAL APPLICATIONS” (priority 2006, published 2010)
Read-outs that look alike come from different tables or passages of the source.

Key:
HIV-2 [1] = assay: Anti-HIV-2 effect in CEM/TK− cells; format: cell-based; conditions: Human immunodeficiency virus 2, CEM-TK(-); Third Series; CEM cells having no thymidine kinase activity
Protocol: (§1) The evaluation test is described in Roy, B.; Chambert, S.; Lepoivre M.; Aubertin, A.-M.; Balzarini, J.; Décout, J.-L., Deoxyribonucleoside 2′- or 3′-mixed disulfides: prodrugs to target ribonucleotide reductase and/or to inhibit HIV reverse transcription. J. Med. Chem. 2003, 46, 2565-2568.
(§2) The toxicity and the antiviral activities were measured at different concentrations, and their evolution as a function of the concentration makes it possible to evaluate: • the concentration at which 50% of the cells are dead in the absence of virus (CC 50) for each of the test compounds, from the change in absorbance at 540 nm of formazan as a function of the concentration of test compound, • the concentration of compound that leads to a 50% reduction in the activity of viral reverse transcriptase (EC 50). This concentration is determined from the curve representing the change in the percentage of “remaining reverse transcriptase” activity (defined as being the ratio of the activity of the reverse transcriptase in the presence of the test compound to that of the untreated cells) as a function of the concentration of test compound.
(§3) EC50: concentration required to afford 50% protection to the CEM cells against the cytopathogenicity of HIV;
• Effect in CEM not expressing thymidine kinase activity (CEM/TK^−, cells having no thymidine kinase activity).

HeLa cells = assay: Cytotoxic effect on HeLa cells; format: cell-based; set-up: unit not given beside the values; conditions: Tables 5 and 7, HeLa cells
HIV-2 [2] = assay: Anti-HIV-2 effect in CEM cells; format: cell-based; conditions: Human immunodeficiency virus 2, CCRF-CEM, CEM cells, read-out: EC50 HIV-2
Protocol: as §1, §2, §3

HIV-1 = assay: Anti-HIV-1 effect in CEM cells; format: cell-based; conditions: Human immunodeficiency virus 1, CCRF-CEM, read-out: EC50 HIV-1
Protocol: as §1, §2, §3

[3] = tested on: L1210/0 murine leukemia cells; assay: Cytotoxic effect on L1210/0 cells; format: cell-based; conditions: Tables 5 and 7, L1210/0 cells
[4] = tested on: FM3A/0 murine mammary carcinoma cells; assay: Cytotoxic effect on FM3A/0 cells; format: cell-based; set-up: unit not given beside the values; conditions: Tables 5 and 7, FM3A/0 cells
human Molt4/C8 cells = assay: Cytotoxic effect on Molt4/C8 cells; format: cell-based; conditions: Tables 5 and 7, Molt4/C8 cells
human CEM cells = assay: Cytotoxicity (MTT) on CEM cells; format: cell-based; conditions: Homo sapiens, CCRF-CEM, Tables 4 and 6, CEM cells; some values 'then plateau'
Protocol: The cytotoxic effect of a compound is studied on human CEM cells and MCF-7 mammary carcinoma cells that are or are not resistant to gemcitabine, which is an anticancer nucleoside used in chemotherapy.
The cytotoxicity (CC50) was estimated by measuring the reduction of 3-(4,5-dimethylthiazol-2-yl)-2,5-diphenyltetrazolium bromide (MTT), which is converted into insoluble violet formazan. To do this, 100 000 cells (human CEM-SS or MCF-7 lines) are inoculated per well in 100 μl of culture medium, in 96-well microtitration plates. After 24 hours, the test products are added in 100 μl and incubation is continued for 48 to 72 hours. MIT is then added in a proportion of 20 μl of a solution at 5 mg/ml in PBS. Three hours later, 100 μl of a DMF/acetic acid/HCl/SDS (sodium dodecyl sulfate) solution are added. After 3 hours at 37° C., the absorbance of the formazan is measured at 590 nm and compared with that of the untreated control.

human CEM T4 lymphocytes = assay: Cytotoxic effect on CEM T4 lymphocytes; format: cell-based; set-up: unit not given beside the values; conditions: Tables 5 and 7, CEM cells
CEM cells = assay: Cytotoxic concentration in CEM cells (antiviral tests); format: cell-based, human; conditions: First and Second Series, second table; viability of CEM cells
Protocol: as §2
CC50: cytotoxic concentration or concentration required to reduce the viability of the CEM cells by 50%.

[5] = First and Second Series, second table

Q: Which EC50 (HIV-2 [1]) does the source give for `Cc1cn([C@H]2C[C@H](SSC(Cl)(Cl)Cl)[C@@H](CO)O2)c(=O)[nH]c1=O` [Compound 22, 3′-deoxythymidin-3′-yl trichloromethyl disulfide] here?
A: The EC50 was 22.5 ± 3.5 µM.

Q: And the “cytotoxic effect, HeLa” value (HeLa cells)?
A: The value was 39 ± 10.

Q: And the EC50 (HIV-2 [2]; [5])?
A: Its EC50 is 17.5 ± 3.5 µM.

Q: And the EC50 (HIV-2 [2]; Third Series)?
A: The EC50 was 27.5 ± 3.5 µM.

Q: What about the EC50 (HIV-1; [5]) of the same molecule?
A: Its EC50 is 25 µM.

Q: What about the EC50 (HIV-1; Third Series) of the same molecule?
A: The EC50 was 20 µM.

Q: What about the “cytotoxic effect, L1210/0” value [3] of the same molecule?
A: Its value is 45 ± 1.

Q: And the “cytotoxic effect, FM3A/0” value [4]?
A: Its value is 244 ± 49.

Q: What about the “cytotoxic effect, Molt4/C8” value (human Molt4/C8 cells) of the same molecule?
A: Its value is 55 ± 19.

Q: What about the EC50 (human CEM cells) of the same molecule?
A: The EC50 was 21 µM.

Q: And the “cytotoxic effect, CEM” value (human CEM T4 lymphocytes)?
A: The value was 121 ± 18.

Q: And the CC50 (CEM cells)?
A: Its CC50 is 103 ± 4 µM.
